Data on one compound can be found in paper PMC5218480 (PLoS ONE, 2017).

The assay concerns MV-4-11 cells. As to the kind of experiment: Gene expression microarray analysis (Affymetrix PrimeView) and GSEA. Type of assay: cell-based, human. Further details: RFU PODN (11730768_x_at) / Fold change /veh PODN (11730768_x_at) / RFU LINC00158 (11744669_a_at) / Fold change /veh LINC00158 (11744669_a_at) / RFU DUSP10 (11751237_a_at) / Fold change /veh DUSP10 (11751237_a_at) / RFU ID3 (11757404_x_at) / Fold change /veh ID3 (11757404_x_at) / RFU PLEKHG5 (11737974_s_at) / Fold change /veh PLEKHG5 (11737974_s_at) / RFU LRRC4B (11730491_at) / Fold change /veh LRRC4B (11730491_at) / RFU GIMAP4 (11747438_a_at) / Fold change /veh GIMAP4 (11747438_a_at) / RFU KRT8 (11758183_x_at) / Fold change /veh KRT8 (11758183_x_at) / RFU CNN1 (11734310_a_at) / Fold change /veh CNN1 (11734310_a_at) / RFU VPS37D (11726825_at) / Fold change /veh VPS37D (11726825_at) / RFU C10orf10 (11716522_x_at) / Fold change /veh C10orf10 (11716522_x_at) / RFU KIR2DL2 /// KIR2DL4 /// KIR2DL5A /// KIR2DL5B /// KIR2DS1 /// KIR2DS2 /// KIR2DS3 /// KIR2DS4 /// KIR3DL3 /// KIR3DL3 /// KIR3DS1 (11738374_at) / Fold change /veh KIR2DL2 /// KIR2DL4 /// KIR2DL5A /// KIR2DL5B /// KIR2DS1 /// KIR2DS2 /// KIR2DS3 /// KIR2DS4 /// KIR3DL3 /// KIR3DL3 /// KIR3DS1 (11738374_at) / RFU C1QL1 (11718748_at) / Fold change /veh C1QL1 (11718748_at) / RFU TMPRSS4 (11747572_a_at) / Fold change /veh TMPRSS4 (11747572_a_at) / RFU HAMP (11756126_x_at) / Fold change /veh HAMP (11756126_x_at) / RFU RNFT2 (11725882_a_at) / Fold change /veh RNFT2 (11725882_a_at) / RFU NR4A2 (11747474_a_at) / Fold change /veh NR4A2 (11747474_a_at) / RFU ABCC12 (11746883_a_at) / Fold change /veh ABCC12 (11746883_a_at) / RFU TMEM136 (11760407_x_at) / Fold change /veh TMEM136 (11760407_x_at) / RFU CLDN22 /// WWC2 (11732394_at) / Fold change /veh CLDN22 /// WWC2 (11732394_at) / RFU HLA-DPB1 (11760878_x_at) / Fold change /veh HLA-DPB1 (11760878_x_at) / RFU SPINT1 (11716480_a_at) / Fold change /veh SPINT1 (11716480_a_at) / RFU GAP43 (11754022_s_at) / Fold change /veh GAP43 (11754022_s_at) / RFU A4GNT (11735810_at) / Fold change /veh A4GNT (11735810_at) / RFU PRB3 (11715151_x_at) / Fold change /veh PRB3 (11715151_x_at) / RFU TUBB4B (11761932_at) / Fold change /veh TUBB4B (11761932_at) / RFU CAPN14 (11732068_a_at) / Fold change /veh CAPN14 (11732068_a_at) / RFU TMCC2 (11721928_a_at) / Fold change /veh TMCC2 (11721928_a_at) / RFU IRGQ (11745062_a_at) / Fold change /veh IRGQ (11745062_a_at) / RFU FAM174B (11720279_a_at) / Fold change /veh FAM174B (11720279_a_at) / RFU TMPRSS4 (11748680_a_at) / Fold change /veh TMPRSS4 (11748680_a_at) / RFU FAM212B (11763350_a_at) / Fold change /veh FAM212B (11763350_a_at) / RFU PLEKHG5 (11743358_a_at) / Fold change /veh PLEKHG5 (11743358_a_at) / RFU ZSCAN30 (11745921_a_at) / Fold change /veh ZSCAN30 (11745921_a_at) / RFU CMKLR1 (11741424_a_at) / Fold change /veh CMKLR1 (11741424_a_at) / RFU LOC101060620 /// MAPK8IP1 (11723275_at) / Fold change /veh LOC101060620 /// MAPK8IP1 (11723275_at) / RFU SPTSSB (11747773_x_at) / Fold change /veh SPTSSB (11747773_x_at) / RFU PRSS12 (11739890_at) / Fold change /veh PRSS12 (11739890_at) / RFU BIN1 (11741810_x_at) / Fold change /veh BIN1 (11741810_x_at) / RFU WNT11 (11732464_a_at) / Fold change /veh WNT11 (11732464_a_at) / RFU C10orf10 (11716521_a_at) / Fold change /veh C10orf10 (11716521_a_at) / RFU C5orf56 (11738089_at) / Fold change /veh C5orf56 (11738089_at) / RFU CYB561 (11721691_x_at) / Fold change /veh CYB561 (11721691_x_at) / RFU ANKRD19P (11752326_a_at) / Fold change /veh ANKRD19P (11752326_a_at) / RFU OR2T12 /// OR2T33 /// OR2T8 (11738714_s_at) / Fold change /veh OR2T12 /// OR2T33 /// OR2T8 (11738714_s_at) / RFU VCAN (11748164_a_at) / Fold change /veh VCAN (11748164_a_at) / RFU JSRP1 (11732532_at) / Fold change /veh JSRP1 (11732532_at) / RFU KRTAP10-11 (11738290_x_at) / Fold change /veh KRTAP10-11 (11738290_x_at) / RFU MYO3A (11730013_a_at) / Fold change /veh MYO3A (11730013_a_at) / RFU EBF3 (11725865_a_at) / Fold change /veh EBF3 (11725865_a_at) / RFU CAMK2N1 (11719241_x_at) / Fold change /veh CAMK2N1 (11719241_x_at) / RFU C5orf56 (11738088_a_at) / Fold change /veh C5orf56 (11738088_a_at) / RFU OLFML3 (11715873_a_at) / Fold change /veh OLFML3 (11715873_a_at) / RFU LOC100653217 /// NTM (11731650_a_at) / Fold change /veh LOC100653217 /// NTM (11731650_a_at) / RFU MAPK11 (11762145_a_at) / Fold change /veh MAPK11 (11762145_a_at) / RFU FIZ1 (11724087_x_at) / Fold change /veh FIZ1 (11724087_x_at) / RFU OASL (11726364_x_at) / Fold change /veh OASL (11726364_x_at) / RFU SOX15 (11748057_x_at) / Fold change /veh SOX15 (11748057_x_at) / RFU CD79A (11719716_a_at) / Fold change /veh CD79A (11719716_a_at) / RFU HIST1H1D (11736915_at) / Fold change /veh HIST1H1D (11736915_at) / RFU CASKIN2 (11723855_a_at) / Fold change /veh CASKIN2 (11723855_a_at) / RFU LOC730098 (11760151_x_at) / Fold change /veh LOC730098 (11760151_x_at) / RFU OR4N2 (11742367_at) / Fold change /veh OR4N2 (11742367_at) / RFU PRRT2 (11749266_a_at) / Fold change /veh PRRT2 (11749266_a_at) / RFU SNX32 (11753110_a_at) / Fold change /veh SNX32 (11753110_a_at) / RFU CDHR5 (11726645_a_at) / Fold change /veh CDHR5 (11726645_a_at) / RFU RCAN1 (11760418_a_at) / Fold change /veh RCAN1 (11760418_a_at) / RFU FAM167A (11723789_a_at) / Fold change /veh FAM167A (11723789_a_at) / RFU FAM26E (11764081_at) / Fold change /veh FAM26E (11764081_at) / RFU ISYNA1 (11749810_s_at) / Fold change /veh ISYNA1 (11749810_s_at) / RFU ACY1 (11761880_at) / Fold change /veh ACY1 (11761880_at) / RFU 11764098_at / Fold change /veh 11764098_at / RFU SAMD14 (11745864_x_at) / Fold change /veh SAMD14 (11745864_x_at) / RFU NPB (11741838_a_at) / Fold change /veh NPB (11741838_a_at) / RFU TMPRSS6 (11731388_a_at) / Fold change /veh TMPRSS6 (11731388_a_at) / RFU KRTAP10-2 (11738614_at) / Fold change /veh KRTAP10-2 (11738614_at) / RFU ARHGAP8 /// PRR5-ARHGAP8 (11727945_x_at) / Fold change /veh ARHGAP8 /// PRR5-ARHGAP8 (11727945_x_at) / RFU KRTAP5-7 /// NADSYN1 (11734609_at) / Fold change /veh KRTAP5-7 /// NADSYN1 (11734609_at) / RFU RASL12 (11751679_a_at) / Fold change /veh RASL12 (11751679_a_at) / RFU CDKN2B (11736163_a_at) / Fold change /veh CDKN2B (11736163_a_at) / RFU PRF1 (11729649_at) / Fold change /veh PRF1 (11729649_at) / RFU, ZNF638 /// ZNF638-IT1 / Fold change vs veh, ZNF638 /// ZNF638-IT1 / RFU, PANK3 / Fold change vs veh, PANK3 / RFU, SH3YL1 / Fold change vs veh, SH3YL1 / RFU, ZEB2 / Fold change vs veh, ZEB2 / RFU, NRIP1 / Fold change vs veh, NRIP1 / RFU, PTTG1IP / Fold change vs veh, PTTG1IP / RFU, CAPN2 / Fold change vs veh, CAPN2 / RFU, MED14 / Fold change vs veh, MED14 / RFU, SNORA58 / Fold change vs veh, SNORA58 / RFU, C1orf63 / Fold change vs veh, C1orf63 / RFU, LRRFIP1 / Fold change vs veh, LRRFIP1 / RFU, NDUFAF7 / Fold change vs veh, NDUFAF7 / RFU, SLC12A2 / Fold change vs veh, SLC12A2 / RFU, IBTK / Fold change vs veh, IBTK / RFU, ESF1 / Fold change vs veh, ESF1 / Fold change vs veh, TMEM50B / RFU, TAOK1 / Fold change vs veh, TAOK1 / RFU, ACBD3 / Fold change vs veh, ACBD3 / RFU, TMA16 / Fold change vs veh, TMA16 / RFU, RWDD3 / Fold change vs veh, RWDD3 / RFU, BCAT1 / Fold change vs veh, BCAT1 / RFU, EDEM3 / Fold change vs veh, EDEM3 / RFU, TMEM33 / Fold change vs veh, TMEM33 / RFU, WDR75 / Fold change vs veh, WDR75 / RFU, AHCTF1 / Fold change vs veh, AHCTF1 / RFU, TFRC / Fold change vs veh, TFRC / RFU, ZDHHC17 / Fold change vs veh, ZDHHC17 / RFU, NOM1 / Fold change vs veh, NOM1 / RFU, ARL8B / Fold change vs veh, ARL8B / RFU, ZBTB11 / Fold change vs veh, ZBTB11 / RFU, TAMM41 / Fold change vs veh, TAMM41 / RFU, KIAA1704 /// LOC100996395 / Fold change vs veh, KIAA1704 /// LOC100996395 / RFU, ING1 / Fold change vs veh, ING1 / RFU, TRMT61B / Fold change vs veh, TRMT61B / RFU, FUBP3 / Fold change vs veh, FUBP3 / RFU, TP53 / Fold change vs veh, TP53 / RFU, TNKS2 / Fold change vs veh, TNKS2 / RFU, ZFP14 / Fold change vs veh, ZFP14 / RFU, ACTR2 / Fold change vs veh, ACTR2 / RFU, PPP3R1 / Fold change vs veh, PPP3R1 / RFU, PIK3R1 / Fold change vs veh, PIK3R1 / RFU, HNRNPA1 / Fold change vs veh, HNRNPA1 / RFU, RNF170 / Fold change vs veh, RNF170 / RFU, ZNF28 / Fold change vs veh, ZNF28 / RFU, RNGTT / Fold change vs veh, RNGTT / RFU, OGT / Fold change vs veh, OGT / RFU, BRD1 / Fold change vs veh, BRD1 / RFU, MARS / Fold change vs veh, MARS / RFU, ZNF655 / Fold change vs veh, ZNF655 / RFU, FAHD1 / Fold change vs veh, FAHD1 / RFU, BDP1 / Fold change vs veh, BDP1 / RFU, LRRCC1 / Fold change vs veh, LRRCC1 / RFU, ARID1A / Fold change vs veh, ARID1A / RFU, ZNF146 / Fold change vs veh, ZNF146 / RFU, ZNF330 / Fold change vs veh, ZNF330 / RFU, GPN3 / Fold change vs veh, GPN3 / RFU, C9orf123 / Fold change vs veh, C9orf123 / RFU, N4BP2L2 / Fold change vs veh, N4BP2L2 / RFU, ARFIP1 / Fold change vs veh, ARFIP1 / RFU, FAM179B / Fold change vs veh, FAM179B / RFU, BCL10 / Fold change vs veh, BCL10 / RFU, UHRF1BP1L / Fold change vs veh, UHRF1BP1L / RFU, BET1 / Fold change vs veh, BET1 / RFU, CNOT2 / Fold change vs veh, CNOT2 / RFU, ZNF268 / Fold change vs veh, ZNF268 / Fold change vs veh, ZNF507 / RFU, DGCR2 / Fold change vs veh, DGCR2 / RFU, WDSUB1 / Fold change vs veh, WDSUB1 / Fold change vs veh, HSP90B1 /// MIR3652 / RFU, ADSS / Fold change vs veh, ADSS / RFU, GK / Fold change vs veh, GK / RFU, ZNF148 / Fold change vs veh, ZNF148 / RFU, TAF9 / Fold change vs veh, TAF9 / RFU, SLC1A5 / Fold change vs veh, SLC1A5 / RFU, SLMO2 / Fold change vs veh, SLMO2 / RFU, ABCC4 / Fold change vs veh, ABCC4 / RFU, LOC101060439 /// RAP1B / Fold change vs veh, LOC101060439 /// RAP1B / RFU, RFX7 / Fold change vs veh, RFX7 / RFU, GTPBP10 / Fold change vs veh, GTPBP10 / RFU, CNEP1R1 / Fold change vs veh, CNEP1R1 / RFU, BIVM-ERCC5 /// ERCC5 / Fold change vs veh, BIVM-ERCC5 /// ERCC5 / RFU, ILF3 / Fold change vs veh, ILF3 / RFU 11762660_at / Fold change /veh 11762660_at / RFU VCAN (11757783_s_at) / Fold change /veh VCAN (11757783_s_at) / RFU DDX43 (11728927_at) / Fold change /veh DDX43 (11728927_at) / RFU KRT8 (11758188_x_at) / Fold change /veh KRT8 (11758188_x_at) / RFU NKD1 (11759106_at) / Fold change /veh NKD1 (11759106_at) / RFU SRD5A1 (11742802_a_at) / Fold change /veh SRD5A1 (11742802_a_at) / RFU TPSAB1 /// TPSB2 (11721975_s_at) / Fold change /veh TPSAB1 /// TPSB2 (11721975_s_at) / RFU GSTM3 (11746129_a_at) / Fold change /veh GSTM3 (11746129_a_at) / RFU IL23R (11737362_x_at) / Fold change /veh IL23R (11737362_x_at) / RFU TMEM51 (11727254_a_at) / Fold change /veh TMEM51 (11727254_a_at) / RFU PIWIL2 (11732686_x_at) / Fold change /veh PIWIL2 (11732686_x_at) / RFU ORM1 (11744905_x_at) / Fold change /veh ORM1 (11744905_x_at) / RFU CCDC152 (11743942_at) / Fold change /veh CCDC152 (11743942_at) / RFU ECM1 (11717891_a_at) / Fold change /veh ECM1 (11717891_a_at) / RFU IL23R (11748794_a_at) / Fold change /veh IL23R (11748794_a_at) / RFU TNFAIP8L3 (11732012_x_at) / Fold change /veh TNFAIP8L3 (11732012_x_at) / RFU MBOAT4 (11741988_at) / Fold change /veh MBOAT4 (11741988_at) / RFU 11764193_at / Fold change /veh 11764193_at / RFU TMEM53 (11763286_at) / Fold change /veh TMEM53 (11763286_at) / RFU MAGEB2 (11727129_at) / Fold change /veh MAGEB2 (11727129_at) / RFU TMEM200A (11744735_a_at) / Fold change /veh TMEM200A (11744735_a_at) / RFU CCDC152 (11751479_a_at) / Fold change /veh CCDC152 (11751479_a_at) / RFU FAM211A (11726209_a_at) / Fold change /veh FAM211A (11726209_a_at) / RFU RGS16 (11746705_a_at) / Fold change /veh RGS16 (11746705_a_at) / RFU VCAN (11755009_s_at) / Fold change /veh VCAN (11755009_s_at) / RFU RHOB (11743442_s_at) / Fold change /veh RHOB (11743442_s_at) / RFU RGS16 (11720943_a_at) / Fold change /veh RGS16 (11720943_a_at) / RFU RGS16 (11720944_at) / Fold change /veh RGS16 (11720944_at) / RFU, VPS4B / Fold change vs veh, VPS4B / RFU, CREB1 / Fold change vs veh, CREB1 / RFU, DNAJC13 / Fold change vs veh, DNAJC13 / RFU, GNAQ / Fold change vs veh, GNAQ / RFU, CDK5R1 / Fold change vs veh, CDK5R1 / RFU, ZRANB3 / Fold change vs veh, ZRANB3 / RFU, CUL4A / Fold change vs veh, CUL4A / RFU, CCNY / Fold change vs veh, CCNY / RFU, UFL1 / Fold change vs veh, UFL1 / RFU, COG3 / Fold change vs veh, COG3 / RFU, DIAPH2 / Fold change vs veh, DIAPH2 / RFU, SKA2 / Fold change vs veh, SKA2 / RFU, AFF3 / Fold change vs veh, AFF3 / RFU, LMF1 / Fold change vs veh, LMF1 / RFU, IPO11 / Fold change vs veh, IPO11 / RFU, DFFB / Fold change vs veh, DFFB / RFU, FOXP1 / Fold change vs veh, FOXP1 / RFU, CARD8 / Fold change vs veh, CARD8 / RFU, STRN3 / Fold change vs veh, STRN3 / RFU, ADK / Fold change vs veh, ADK / RFU, RASSF2 / Fold change vs veh, RASSF2 / RFU, WIPF1 / Fold change vs veh, WIPF1 / RFU, LARP1B / Fold change vs veh, LARP1B / RFU, RASA1 / Fold change vs veh, RASA1 / RFU, RB1 / Fold change vs veh, RB1 / RFU, PPFIA1 / Fold change vs veh, PPFIA1 / RFU, MAT2A / Fold change vs veh, MAT2A / RFU, CCT5 / Fold change vs veh, CCT5 / RFU, WDR92 / Fold change vs veh, WDR92 / RFU, CUX1 / Fold change vs veh, CUX1 / RFU, TTC7A / Fold change vs veh, TTC7A / RFU, TMEM135 / Fold change vs veh, TMEM135 / RFU, DEPTOR / Fold change vs veh, DEPTOR / RFU, CPM / Fold change vs veh, CPM / RFU, DNAJB6 / Fold change vs veh, DNAJB6 / RFU, CACNA2D3 / Fold change vs veh, CACNA2D3 / RFU, DTX4 / Fold change vs veh, DTX4 / RFU, TFCP2 / Fold change vs veh, TFCP2 / RFU, GMCL1 /// GMCL1P1 / Fold change vs veh, GMCL1 /// GMCL1P1 / RFU, AEBP2 / Fold change vs veh, AEBP2 / RFU, SNHG1 /// SNORD22 /// SNORD25 /// SNORD26 /// SNORD27 /// SNORD28 /// SNORD29 /// SNORD31 / Fold change vs veh, SNHG1 /// SNORD22 /// SNORD25 /// SNORD26 /// SNORD27 /// SNORD28 /// SNORD29 /// SNORD31 / Fold change (Aza/veh), C12orf56 (ProbeSet 11735607_a_at) / Fold change (ACY-1035/veh), C12orf56 (ProbeSet 11735607_a_at) / Fold change (Aza/veh), FGFR1OP (ProbeSet 11751329_s_at) / Fold change (ACY-1035/veh), FGFR1OP (ProbeSet 11751329_s_at) / Fold change (Aza/veh), VPS36 (ProbeSet 11739960_a_at) / Fold change (ACY-1035/veh), VPS36 (ProbeSet 11739960_a_at) / RFU SYPL1 (11715823_x_at) / Fold change /veh SYPL1 (11715823_x_at) / RFU IGFBP7 (11715501_s_at) / Fold change /veh IGFBP7 (11715501_s_at) / RFU REEP3 (11722064_at) / Fold change /veh REEP3 (11722064_at) / RFU IGLL1 (11728026_x_at) / Fold change /veh IGLL1 (11728026_x_at): dose or concentration left out as unconfirmed. As to conditions: MV-4-11 cells, 48 hours.

Turning to `Nc1ccc(-c2cccs2)cc1NC(=O)c1ccc2c(c1)cc(C1CC1)n2CCN1CCOCC1` [ACY-1035], the “RFU PODN (11730768_x_at)” value worked out at 25.60 RFU.
